Data on nine compounds can be found in patent publication US20250249026A1 (priority 2019, published 2025).

Several values for one entry are separate records, joined by “and”; a condition that tells them apart may be missing. Equal values may be shown once. Entries after “also recorded” stand apart in the source; their conditions may differ.

For test [1], the system named is iNOS. Nature of the test: Expression of iNOS in macrophages induced by LPS (Embodiment 8). The format is cell-based, Mouse. The conditions noted are these: 10 μmol/L, LPS 0.1 μg/mL, 24 h, ELISA, FIG. 6. How it is done: 1. Cell line: Macrophage RAW264.7.
2. Reagents: LPS (Sigma); iNOS detection kit (Stressgen); MTT (Biotopped).
The level of iNOS protein in macrophages was determined by ELISA using an anti-human iNOS polyclonal antibody (Stressgen). The number of macrophages was determined by using an automatic flow cytometer.

Test [2] in a line: Removing peroxynitrite, SIN-1 as donor (Embodiment 9). The settings on record: SIN-1 1 μmol/L, 1, 10, 100 μmol/L, 302 nm, FIG. 7. The format is biochemical. The procedure:
3-morpholino-sydnonimine (SIN-1) as a peroxynitrite donor was added to 15 test tubes at a concentration of 1 μmol/L. 5-methyltetrahydrofolate calcium was added to test tubes containing the SIN-1 solution to the final concentrations of 1 μmol/L, 10 μmol/L, and 100 μmol/L respectively; dehydroascorbic acid was added to test tubes containing the SIN-1 solution to the final concentrations of 1 μmol/L, 10 μmol/L, and 100 μmol/L respectively; glutathione was added to test tubes containing the SIN-1 solution to the final concentrations of 1 μmol/L, 10 μmol/L, and 100 μmol/L respectively; NMN was added to test tubes containing the SIN-1 solution to the final concentrations of 1 μmol/L, 10 μmol/L, and 100 μmol/L respectively; and tetrahydrobiopterin was added to test tubes containing the SIN-1 solution to the final concentrations of 1 μmol/L, 10 μmol/L, and 100 μmol/L respectively. The concentration of peroxynitrite was determined by spectrophotometry at a detection wavelength of 302 nm.

Test [3] deals with influenza. In kind it is in vivo, human.
In test [4] the test system is Macrophage RAW264.7. Nature of the test: NO secretion of macrophage RAW264.7 (Embodiment 12). The format is cell-based, Mouse. The conditions noted are these: for Lysate NO secretion amount / Supernatant NO secretion amount: Folate 15.625 μM, LPS group 1 μg/mL, mean, n = 6. The procedure:
• 1. Cell line: Macrophage RAW264.7. • 2. […] II. Experimental scheme
An absorbance value at 520 nm was expressed as mean±standard deviation. NO secretion rate=(OD sample well-OD blank well)/(OD normal well-OD blank well)×100%, and the NO secretion amount was calculated according to a standard curve.

Test [5] concerns Macrophage RAW264.7. The settings on record: 15.625, 62.5, 250 μmol/L; FIGS. 10-12.
The subject of test [6] is Mycoplasma pneumoniae (ATCCFH15531). Nature of the test: In vivo anti-mycoplasma pneumonia experiment (Embodiment 21). The settings on record: azithromycin 40 mg/kg; composition C 40 and 80 mg/kg; 10 days.
The conditions of test [7]: randomized controlled trial / meta analyses from the literature; cited from earlier work.
Test [8] deals with Pseudomonas aeruginosa. Nature of the test: Gram-negative bacteria in vivo (Embodiment 18). On the set-up: species or system BAL B/C male mice. The conditions noted are these: penicillin 450 mg/kg by gavage 30 min and 24 h after infection. The procedure: […] BAL B/C male mice weighing 18-22 g were divided into 6 groups with 8 mice in each group. […] After a bacterial solution of Pseudomonas aeruginosa was cultured by streaking on an LB solid medium, a typical colony was picked and inoculated into an ordinary LB liquid medium. After overnight shaking culture at 37° C. for about 12 h, the culture was centrifuged at 4000 r/min for 3 min, the supernatant was discarded, and the bacteria were resuspended in normal saline for later use. The BAL B/C male mice in each experimental group and three control groups were intraperitoneally injected with a fatal dose of Pseudomonas aeruginosa solution at a dose of 500 μL/mouse. 30 min after the BAL B/C male mice in the experimental groups were infected with the bacteria, the medium-dose composition group and the high-dose composition group were administered with drugs by gavage, the penicillin group and the meropenem group were also administered with drugs by gavage, and the normal group was administered with purified water by gavage. 24 h after administration, the BAL B/C male mice in each experimental group and control group were administered for the second time, and the drug type and dosage were the same as the administration for the first time. The BAL B/C male mice were observed every 24 h after administration, and their survival was recorded. All animals were sacrificed on the day 15.

The mark [9] stands for this setting: listed as 5-methyltetrahydrofolic acid.
The mark [10] stands for this setting: Folate capsules 400 mg/capsule, per patient, row Mean = mean.

Consider 6S-5-methyltetrahydrofolate calcium, for which, in test [1] (setting [9]), the “effect on expression of iNOS in macrophages induced by LPS” value (from here on “effect on expression of iNOS”) is “did not affect; also recorded: almost no effect”. In addition, the peroxynitrite scavenging result in test [2] (setting [9]) is recorded as “excellent peroxynitrite scavenging effects; also recorded: higher ability to scavenge peroxynitrite”. In addition, in test [3] (setting [10]), the “Basic rehabilitation (symptoms other than tonsillitis and sore throat disappeared)” value is 33 hours (2×) and 35 hours and 13 hours and 12 hours (2×) and 17 hours (2×) and 32 hours (3×) and 8 hours and 43 hours and 18 hours and 34 hours and 15 hours and 11 hours and 56 hours and 24 hours and 10 hours and 46 hours and 58 hours and 53 hours and 14 hours; the “Complete rehabilitation (all symptoms disappeared)” value was 33 hours (2×) and 35 hours and 13 hours (3×) and 12 hours and 17 hours (2×) and 32 hours (2×) and 8 hours and 43 hours and 36 hours (2×) and 48 hours and 56 hours and 46 hours (3×) and 44 hours and 58 hours (2×) and 14 hours; the “disappearance time of symptoms: Cough” value is 33 hours (2×) and 17 hours and 29 hours and 46 hours (2×) and 44 hours and 13 hours and 58 hours; the “disappearance time of symptoms: Dizziness and fullness in head” value was 48 h and 9 h. For the same compound, in test [3] (setting [10]), the “disappearance time of symptoms: Dry and itchy throat” value stood at 15 h; the “disappearance time of symptoms: Fatigue” value is 35 hours and 8 hours (3×) and 12 hours (3×) and 15 hours and 10 hours (4×) and 33 hours; the “disappearance time of symptoms: Headache” value is 13 hours and 12 hours (4×) and 32 hours (2×) and 8 hours (3×) and 9 hours and 10 hours (2×) and 14 hours; the “disappearance time of symptoms: Inappetence” value was found to be 13 h. Further, in test [3] (setting [10]), the “disappearance time of symptoms: Intolerance of cold and cold limbs” value was found to be 10 h; the “disappearance time of symptoms: Low fever” value turned out to be 10 h; the “disappearance time of symptoms: Muscular soreness” value is 16 hours and 13 hours and 32 hours and 9 hours and 15 hours and 10 hours (2×) and 14 hours; the “disappearance time of symptoms: Nasal stuffiness” value is 9 hours and 17 hours and 32 hours (2×) and 8 hours and 43 hours and 12 hours (3×) and 20 hours and 15 hours (2×) and 56 hours and 33 hours and 24 hours and 10 hours and 41 hours. In test [3] (setting [10]), the “disappearance time of symptoms: Running nose” value was 11 hours (2×) and 13 hours and 32 hours and 8 hours and 9 hours and 20 hours and 15 hours and 12 hours (3×) and 33 hours (2×) and 46 hours and 53 hours and 17 hours and 14 hours; the “disappearance time of symptoms: Sneezing” value was 32 hours (2×) and 9 hours (2×) and 18 hours and 34 hours and 15 hours and 12 hours (3×) and 8 hours and 33 hours and 10 hours and 17 hours; the “disappearance time of symptoms: Sore throat” value was 33 hours (2×) and 12 hours (2×) and 32 hours (3×) and 29 hours and 36 hours (2×) and 46 hours and 10 hours and 54 hours and 58 hours and 14 hours. In addition, in test [3] (data in both Table 1 and Table 2), the “time until the patients' influenza almost all healed” value is ≤ 2 days. In addition, in test [4] (1 μg/mL LPS induction), the “Lysate NO secretion amount” value was found to be 1.725 µM and the “Supernatant NO secretion amount” value stood at 36.814 µM. Also, the “effect on secretion/expression of NO in macrophages” value in test [4] (15.625 μmol/L, macrophages induced by LPS, listed as 5-methyltetrahydrofolic acid) was “did not inhibit; also recorded: hardly affects”. Further, in test [4] (No induction), the “Lysate NO secretion amount” value was determined as 3.863 µM and the “Supernatant NO secretion amount” value amounted to 1.714 µM. Further, the “effect on secretion of NO when no LPS stimulation is provided” value in test [4] (low concentration, no LPS) is “promote the secretion of NO”. Also, the “effect on expression of macrophages and inflammatory factors induced by LPS” value in test [5] is “no significant effect”.
For `NC(=O)c1ccc[n+]([C@@H]2O[C@H](COP(=O)([O-])O)[C@@H](O)[C@H]2O)c1` [NMN, nicotinamide mononucleotide], in test [1], the “effect on expression of iNOS” value was “did not affect; also recorded: almost no effect”. Also, the peroxynitrite scavenging entry in test [2] is listed as “excellent peroxynitrite scavenging effects; also recorded: higher ability to scavenge peroxynitrite”.
`CC[C@H]1OC(=O)[C@H](C)[C@@H](O[C@H]2C[C@@](C)(OC)[C@@H](O)[C@H](C)O2)[C@H](C)[C@@H](O[C@@H]2O[C@H](C)C[C@H](N(C)C)[C@H]2O)[C@](C)(O)C[C@@H](C)CN(C)[C@H](C)[C@@H](O)[C@]1(C)O` [azithromycin]: the “histopathological examination of the lung tissue” value in test [6] is “Mild interstitial pneumonia”.
In the case of `O=C1O[C@H]([C@@H](O)CO)C(=O)C1=O` [dehydroascorbic acid], in test [1], the “effect on expression of iNOS” value is reported as “almost no effect”. Further, in test [2], the peroxynitrite scavenging result is listed as “excellent peroxynitrite scavenging effects; also recorded: higher ability to scavenge peroxynitrite”.
Consider `N[C@@H](CCC(=O)N[C@@H](CS)C(=O)NCC(=O)O)C(=O)O` [glutathione, reference compound], for which the “effect on expression of iNOS” value in test [1] is recorded as “did not affect; also recorded: almost no effect”.
As for `C[C@]12CCC(=O)C=C1CC[C@@H]1[C@@H]2[C@@H](O)C[C@@]2(C)[C@H]1CC[C@]2(O)C(=O)CO` [hydrocortisone], in test [7], the “mortality of patients with sepsis” value was “could not reduce”.
On to `O=C1O[C@H]([C@@H](O)CO)C(O)=C1O` [vitamin C], for which the “mortality of patients with sepsis” value in test [7] is reported as “cannot improve”.
Turning to “lipopolysaccharide [LPS, reference compound]”, the “Lysate NO secretion amount” value came to 1.6 µM in test [4] (1 μg/mL LPS induction) and 1.95 µM in test [4] (No induction). Further, the results for the “Supernatant NO secretion amount” value in test [4] (1 μg/mL LPS induction) and in test [4] (No induction) were 37.343 µM and 42.714 µM, respectively.
In the case of penicillin, the “outcome of mice infected with the fatal dose of Pseudomonas aeruginosa” value in test [8] is reported as “all the mice in the penicillin group died”.
